Test results as given in ChEMBL document CHEMBL5303573, “Mapping human microbiome drug metabolism by gut bacteria and their genes” (Nature, 2019).

How the values were obtained:
[1] = The drug is tested on Collinsella intestinalis strain: DSM13280 for biotransformation. The drug concentrations were measured before and after a 12-h incubation by liquid-chromatography-coupled mass spectrometry (LC–MS); settings: 2 µM
[2] = The drug is tested on Bacteroides coprophilus strain: DSM18228 for biotransformation. The drug concentrations were measured before and after a 12-h incubation by liquid-chromatography-coupled mass spectrometry (LC–MS); settings: 2 µM
[3] = The drug is tested on Bacteroides ovatus strain: ATCC8483 for biotransformation. The drug concentrations were measured before and after a 12-h incubation by liquid-chromatography-coupled mass spectrometry (LC–MS); settings: 2 µM
[4] = The drug is tested on Bacteroides pectinophilus strain: ATCC43243 for biotransformation. The drug concentrations were measured before and after a 12-h incubation by liquid-chromatography-coupled mass spectrometry (LC–MS); settings: 2 µM
[5] = The drug is tested on Bacteroides sp. WH2 strain: WH2 for biotransformation. The drug concentrations were measured before and after a 12-h incubation by liquid-chromatography-coupled mass spectrometry (LC–MS); settings: bacteroides sp. wh2, 12 h, 2 µM
[6] = The drug is tested on Anaerotruncus colihominis strain: DSM17241 for biotransformation. The drug concentrations were measured before and after a 12-h incubation by liquid-chromatography-coupled mass spectrometry (LC–MS); settings: 2 µM
[7] = The drug is tested on Blautia luti strain: DSM14534 for biotransformation. The drug concentrations were measured before and after a 12-h incubation by liquid-chromatography-coupled mass spectrometry (LC–MS); format: ADME; set-up: dose 2 uM, timepoint 0 vs 12 hours; settings: 2 µM
[8] = The drug is tested on Clostridium ramosum strain: DSM1402 for biotransformation. The drug concentrations were measured before and after a 12-h incubation by liquid-chromatography-coupled mass spectrometry (LC–MS); settings: thomasclavelia ramosa, 2 µM
[9] = The drug is tested on Dorea formicigenerans strain: ATCC27755 for biotransformation. The drug concentrations were measured before and after a 12-h incubation by liquid-chromatography-coupled mass spectrometry (LC–MS); settings: 2 µM
[10] = The drug is tested on Eubacterium ventriosum strain: ATCC27560 for biotransformation. The drug concentrations were measured before and after a 12-h incubation by liquid-chromatography-coupled mass spectrometry (LC–MS); format: ADME; set-up: dose 2 uM, timepoint 0 vs 12 hours; settings: 2 µM
[11] = The drug is tested on Subdoligranulum variabile strain: DSM15176 for biotransformation. The drug concentrations were measured before and after a 12-h incubation by liquid-chromatography-coupled mass spectrometry (LC–MS); settings: 2 µM
[12] = The drug is tested on Edwardsiella tarda strain: ATCC23685 for biotransformation. The drug concentrations were measured before and after a 12-h incubation by liquid-chromatography-coupled mass spectrometry (LC–MS); settings: 2 µM
[13] = The drug is tested on Escherichia coli strain: BW25113 for biotransformation. The drug concentrations were measured before and after a 12-h incubation by liquid-chromatography-coupled mass spectrometry (LC–MS); settings: 2 µM
[14] = bacteroides fragilis, 12 h, 2 µM
Description: The drug is tested on Bacteroides fragilis strain: 3397 (T10) for biotransformation. The drug concentrations were measured before and after a 12-h incubation by liquid-chromatography-coupled mass spectrometry (LC–MS)

[15] = bacteroides fragilis, 12 h, 2 µM; remark: listed apart in the source
Description: The drug is tested on Bacteroides fragilis strain: DS-208 for biotransformation. The drug concentrations were measured before and after a 12-h incubation by liquid-chromatography-coupled mass spectrometry (LC–MS)

[16] = bacteroides thetaiotaomicron, 12 h, 2 µM
Description: The drug is tested on Bacteroides thetaiotaomicron strain: VPI-5482 for biotransformation. The drug concentrations were measured before and after a 12-h incubation by liquid-chromatography-coupled mass spectrometry (LC–MS)

[17] = bacteroides thetaiotaomicron, 12 h, 2 µM; remark: listed apart in the source
Description: The drug is tested on Bacteroides thetaiotaomicron strain: 3731 for biotransformation. The drug concentrations were measured before and after a 12-h incubation by liquid-chromatography-coupled mass spectrometry (LC–MS)

[18] = The drug is tested on Bacteroides xylanisolvens strain: DSM18836 for biotransformation. The drug concentrations were measured before and after a 12-h incubation by liquid-chromatography-coupled mass spectrometry (LC–MS); settings: 2 µM
[19] = The drug is tested on Alistipes indistinctus strain: DSM22520 for biotransformation. The drug concentrations were measured before and after a 12-h incubation by liquid-chromatography-coupled mass spectrometry (LC–MS); settings: 2 µM
[20] = The drug is tested on Blautia hansenii strain: DSM20583 for biotransformation. The drug concentrations were measured before and after a 12-h incubation by liquid-chromatography-coupled mass spectrometry (LC–MS); settings: 2 µM

| Structure (SMILES) | Bacterial Biotransformation [1] | Bacterial Biotransformation [2] | Bacterial Biotransformation [3] | Bacterial Biotransformation [4] | Bacterial Biotransformation [5] | Bacterial Biotransformation [6] | Bacterial Biotransformation [7] | Bacterial Biotransformation [8] | Bacterial Biotransformation [9] | Bacterial Biotransformation [10] | Bacterial Biotransformation [11] | Bacterial Biotransformation [12] | Bacterial Biotransformation [13] | Bacterial Biotransformation [14] | Bacterial Biotransformation [15] | Bacterial Biotransformation [16] | Bacterial Biotransformation [17] | Bacterial Biotransformation [18] | Bacterial Biotransformation [19] | Bacterial Biotransformation [20] |
| --- | --- | --- | --- | --- | --- | --- | --- | --- | --- | --- | --- | --- | --- | --- | --- | --- | --- | --- | --- | --- |
| CC(=O)CC(c1ccccc1)c1c(O)c2ccccc2oc1=O (stereo not drawn) [WARFARIN] | Compound NOT metabolized | Compound NOT metabolized | Compound NOT metabolized | Compound NOT metabolized | Compound NOT metabolized | Compound NOT metabolized | Compound NOT metabolized | Compound NOT metabolized | Compound NOT metabolized | Compound NOT metabolized | Compound NOT metabolized | Compound NOT metabolized | Compound NOT metabolized | Compound NOT metabolized | Compound NOT metabolized | Compound NOT metabolized | Compound NOT metabolized |  |  |  |
| Br.CN1CCC[C@@H]1Cc1c[nH]c2ccc(CCS(=O)(=O)c3ccccc3)cc12 [ELETRIPTAN HYDROBROMIDE] | Compound NOT metabolized | Compound NOT metabolized | Compound NOT metabolized | Compound NOT metabolized | Compound NOT metabolized | Compound NOT metabolized | Compound NOT metabolized | Compound NOT metabolized | Compound NOT metabolized | Compound NOT metabolized | Compound NOT metabolized | Compound NOT metabolized |  | Compound NOT metabolized | Compound NOT metabolized |  |  | Compound NOT metabolized |  |  |
| CCN(C)C(=O)Oc1cccc([C@H](C)N(C)C)c1.O=C(O)C(O)C(O)C(=O)O [RIVASTIGMINE TARTRATE] | Compound NOT metabolized |  |  | Compound NOT metabolized | Compound NOT metabolized | Compound NOT metabolized | Compound NOT metabolized | Compound NOT metabolized | Compound NOT metabolized | Compound NOT metabolized | Compound NOT metabolized | Compound NOT metabolized | Compound NOT metabolized | Compound NOT metabolized | Compound NOT metabolized | Compound NOT metabolized | Compound NOT metabolized | Compound NOT metabolized |  |  |
| CCN(CC)CCCC(C)Nc1c2ccc(Cl)cc2nc2ccc(OC)cc12 (stereo not drawn) [QUINACRINE] | Compound NOT metabolized | Compound NOT metabolized | Compound NOT metabolized | Compound NOT metabolized | Compound NOT metabolized | Compound NOT metabolized | Compound NOT metabolized | Compound NOT metabolized | Compound NOT metabolized | Compound NOT metabolized | Compound NOT metabolized |  | Compound NOT metabolized | Compound NOT metabolized | Compound NOT metabolized | Compound NOT metabolized | Compound NOT metabolized | Compound NOT metabolized |  |  |

Next, values leading:

| Bacterial Biotransformation [1] | Bacterial Biotransformation [2] | Bacterial Biotransformation [3] | Bacterial Biotransformation [4] | Bacterial Biotransformation [5] | Bacterial Biotransformation [6] | Bacterial Biotransformation [7] | Bacterial Biotransformation [8] | Bacterial Biotransformation [9] | Bacterial Biotransformation [10] | Bacterial Biotransformation [11] | Bacterial Biotransformation [12] | Bacterial Biotransformation [13] | Bacterial Biotransformation [14] | Bacterial Biotransformation [15] | Bacterial Biotransformation [16] | Bacterial Biotransformation [17] | Bacterial Biotransformation [18] | Bacterial Biotransformation [19] | Bacterial Biotransformation [20] | Structure (SMILES) |
| --- | --- | --- | --- | --- | --- | --- | --- | --- | --- | --- | --- | --- | --- | --- | --- | --- | --- | --- | --- | --- |
| Compound NOT metabolized |  |  | Compound NOT metabolized | Compound NOT metabolized | Compound NOT metabolized | Compound NOT metabolized |  | Compound NOT metabolized | Compound NOT metabolized | Compound NOT metabolized | Compound NOT metabolized | Compound NOT metabolized | Compound NOT metabolized | Compound NOT metabolized |  | Compound NOT metabolized | Compound metabolized |  |  | C[C@]12CCC(=O)C=C1[C@@H]1C[C@@H]1[C@H]1[C@@H]3[C@@H]4C[C@@H]4[C@@]4(CCC(=O)O4)[C@@]3(C)CC[C@@H]12 [DROSPIRENONE] |
| Compound NOT metabolized | Compound NOT metabolized | Compound NOT metabolized | Compound NOT metabolized | Compound NOT metabolized | Compound NOT metabolized | Compound NOT metabolized | Compound NOT metabolized | Compound NOT metabolized | Compound NOT metabolized |  | Compound NOT metabolized | Compound NOT metabolized | Compound NOT metabolized | Compound NOT metabolized | Compound NOT metabolized | Compound NOT metabolized | Compound NOT metabolized | Compound NOT metabolized | Compound NOT metabolized | O=C([O-])C[C@H](O)C[C@H](O)/C=C/c1c(C2CC2)nc2ccccc2c1-c1ccc(F)cc1.O=C([O-])C[C@H](O)C[C@H](O)/C=C/c1c(C2CC2)nc2ccccc2c1-c1ccc(F)cc1.[Ca+2] [PITAVASTATIN CALCIUM] |
| Compound NOT metabolized | Compound metabolized | Compound metabolized | Compound metabolized | Compound NOT metabolized | Compound NOT metabolized | Compound NOT metabolized | Compound NOT metabolized | Compound NOT metabolized | Compound NOT metabolized |  | Compound NOT metabolized | Compound NOT metabolized | Compound metabolized | Compound metabolized | Compound metabolized | Compound metabolized | Compound metabolized | Compound NOT metabolized | Compound metabolized | Cc1ccc(S(=O)(=O)NC(=O)NN2CCCCCC2)cc1 [TOLAZAMIDE] |
| Compound NOT metabolized | Compound NOT metabolized | Compound NOT metabolized | Compound NOT metabolized | Compound NOT metabolized | Compound NOT metabolized | Compound NOT metabolized |  | Compound NOT metabolized | Compound NOT metabolized | Compound NOT metabolized | Compound NOT metabolized | Compound NOT metabolized | Compound NOT metabolized | Compound NOT metabolized | Compound NOT metabolized | Compound NOT metabolized | Compound NOT metabolized |  |  | O=c1n(CCCN2CCN(c3cccc(Cl)c3)CC2)nc2ccccn12 [TRAZODONE] |
| Compound NOT metabolized |  | Compound NOT metabolized | Compound NOT metabolized | Compound NOT metabolized | Compound NOT metabolized | Compound NOT metabolized | Compound NOT metabolized | Compound NOT metabolized | Compound NOT metabolized | Compound NOT metabolized | Compound NOT metabolized | Compound NOT metabolized |  | Compound NOT metabolized |  |  | Compound NOT metabolized |  |  | CCCN(CCC)CCc1cccc2c1CC(=O)N2 [ROPINIROLE] |
